Results published in US12403150B2, “Tryptamine compositions for enhancing neurite outgrowth” (priority 2019, dated 2025).
Entries after “also recorded” stand apart in the source; their conditions may differ. Like-named read-outs stand apart in the source and are kept apart here.

B1: BDNF: brain-derived neurotrophic factor, positive control at 50 ng/ml (protein, UniProt P23560 19-247, looked up)
Neurotrophic factor BDNF …: APMKEANIRGQGGLAYPGVRTHGTLESVNGPKAGSRGLTSLADTFEHVIEELLDEDQKVRPNEENNKDADLYTSRVMLSSQVPLEPPLLFLLEEYKNYLDAANMSMRVRRHSDPARRGELSVCDSISEWVTAADKKTAVDMSGGTVTVLEKVPVSKGQLKQYFYETKCNPMGYTKEGCRGIDKRHWNSQCRTTQSYVRALTMDSKKRIGWRFIRIDTSCVCTLTIKRGR

How the values were obtained:
5-HT2A receptor = 5-HT2A receptor (Homo sapiens, UniProt P28223); conditions: cited from earlier work
[1] = system: inflammation in the lungs; conditions: in vivo; cited from earlier work
[2] = system: PC12 cells treated with conditioned media from 1321N1 cells; assay: Neurite outgrowth of PC12 cells treated with conditioned media from 1321N1 cells; type: cell-based, rat; conditions: conditioned media from treated 1321N1 human astrocytoma cells; n=3
From the text: 1321N1 human brain astrocytoma cells are known to excrete neurologically beneficial compounds when stimulated with neurotrophic compounds and fungal extracts including lion's mane (Mori et al., Biological and Pharmaceutical Bulletin, 9:1727-1732 (2008)). While some fungi have well established mechanisms by which they benefit neurological health, little is known about the role of psilocybin analogs specifically. Generally following the protocol of Mori et al., 2008, 1321N1 human astrocytoma cells were treated with psilocybin analogs, and conditioned media was collected and applied to differentiated rat pheochromocytoma PC12 cells to determine the resulting impact on neurite outgrowth.

hallucinogenic effects = conditions: cited from earlier work
[3] = system: Rat Induced Pluripotent Stem Cell (iPSC) Neuron Culture / cortical neurons from rat embryo; type: cell-based; conditions: for Neurite length per neuron, % of control, Avg. / Neurite length per neuron, Length (μm), Avg. / Neurites per neuron, % of control, Avg. / Neurites per neuron, Number, Avg.: day 10
Protocol: Experiments were conducted to evaluate the neurotrophic effects of several purified tryptamines, H. erinaceum extracts, and the tryptamines combined with selected extracts of H. erinaceum. The tryptamines, baeocystin, norbaeocystin, and norpsilocin, were evaluated at final concentrations of 0.3 μg/mL, 1 μg/mL, 3 μg/mL, and 10 μg/mL. The experiments analyzed the H. erinaceum growth medium (rice or rice and oat hull fiber), the days of cultivation, the extract solvent (water, ethanol, or ethyl acetate), and the final concentration of the extract (31.3 μg/mL, 62.5 μg/mL, 125 μg/mL or 250 μg/mL). Finally, combinations of the three tryptamines and representative H. erinaceum extracts were combined and evaluated.
Rat Induced Pluripotent Stem Cell (iPSC) Neuron Culture
The following protocol was performed for each independent culture. Six culture experiments were performed for each condition.
Results are expressed as mean (±Standard Deviation).

[4] = system: nerve growth factor (NGF) protein; assay: ELISA of NGF protein in human 1321N1 brain cells; type: cell-based; conditions: human 1321N1 cells, compared to a vehicle control; n=3; p<0.05
From the text: Accordingly, preliminary research has started to reveal the mechanisms by which psilocybin analogs may confer neurotrophic benefits that facilitate neurite outgrowth.
(§1) See Ly et al., “Psychedelics Promote Structural and Functional Neural Plasticity,” Cell Rep.

IL-10 = assay: ELISA of IL-10 in human 1321N1 brain cells; type: cell-based
From the text: as §1

Chain of 5-HT2A receptor (P28223 whole entry): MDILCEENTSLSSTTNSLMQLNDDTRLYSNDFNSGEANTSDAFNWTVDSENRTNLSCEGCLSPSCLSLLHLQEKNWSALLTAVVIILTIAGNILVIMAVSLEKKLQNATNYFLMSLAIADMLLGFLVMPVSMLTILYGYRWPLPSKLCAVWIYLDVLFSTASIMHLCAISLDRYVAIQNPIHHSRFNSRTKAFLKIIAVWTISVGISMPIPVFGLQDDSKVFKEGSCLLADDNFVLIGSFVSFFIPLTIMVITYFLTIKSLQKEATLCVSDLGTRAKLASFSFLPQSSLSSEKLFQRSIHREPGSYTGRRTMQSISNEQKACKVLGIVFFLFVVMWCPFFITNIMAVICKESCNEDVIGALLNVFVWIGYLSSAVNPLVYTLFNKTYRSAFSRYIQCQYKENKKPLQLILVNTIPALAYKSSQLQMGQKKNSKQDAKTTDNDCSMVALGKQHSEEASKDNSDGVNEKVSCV

Row | Molecule | neurite outgrowth in PC12 cells by conditioned media [2] | Neurite length per neuron, % of control, Avg. ([3]; tryptamine 0.3 μg/mL) | Neurite length per neuron, Length (μm), Avg. ([3]; tryptamine 0.3 μg/mL) [μm] | Neurites per neuron, % of control, Avg. ([3]; tryptamine 0.3 μg/mL) | Neurites per neuron, Number, Avg. ([3]; tryptamine 0.3 μg/mL) | Neurite length per neuron, % of control, Avg. ([3]; tryptamine 1 μg/mL) | Neurite length per neuron, Length (μm), Avg. ([3]; tryptamine 1 μg/mL) [μm] | Neurites per neuron, % of control, Avg. ([3]; tryptamine 1 μg/mL) | Neurites per neuron, Number, Avg. ([3]; tryptamine 1 μg/mL) | Neurite length per neuron, % of control, Avg. ([3]; tryptamine 3 μg/mL) | Neurite length per neuron, Length (μm), Avg. ([3]; tryptamine 3 μg/mL) [μm] | Neurites per neuron, % of control, Avg. ([3]; tryptamine 3 μg/mL) | Neurites per neuron, Number, Avg. ([3]; tryptamine 3 μg/mL) | Neurite length per neuron, % of control, Avg. ([3]; tryptamine 10 μg/mL) | Neurite length per neuron, Length (μm), Avg. ([3]; tryptamine 10 μg/mL) [μm] | Neurites per neuron, % of control, Avg. ([3]; tryptamine 10 μg/mL) | Neurites per neuron, Number, Avg. ([3]; tryptamine 10 μg/mL) | other results
1 | COc1cc(C[C@@H](C)N)c(OC)cc1I [(R)-2,5-dimethoxy-4-iodoamphetamine] | – | – | – | – | – | – | – | – | – | – | – | – | – | – | – | – | – | activation of the 5-HT2A receptor (5-HT2A receptor): activate the 5-HT2A receptor; inflammation in the lungs [1]: prevent and reverse inflammation in the lungs
2 | CNCCc1c[nH]c2cccc(OP(=O)(O)O)c12 [baeocystin, 4-phosphoryloxy-N-methyltryptamine] | induce neurite outgrowth | 119.24 % of control | 418.30 | 94.46 % of control | 2.99 | 112.34 % of control | 394.11 | 93.66 % of control | 2.96 | 118.42 % of control | 415.42 | 97.18 % of control | 3.07 | 109.61 % of control | 384.52 | 96.87 % of control | 3.06 | hallucinogenic effects after consumption (hallucinogenic effects; 4 mg, anecdotal experience): gentle hallucinogenic experience; hallucinogenic effects after oral consumption (hallucinogenic effects; 10 mg and 20 mg, case studies): did not produce any hallucinogenic effects
3 | NCCc1c[nH]c2cccc(OP(=O)(O)O)c12 [norbaeocystin, 4-phosphoryloxy-tryptamine] | induce neurite outgrowth | 128.69 % of control | 441.86 | 92.67 % of control | 3.09 | 127.25 % of control | 436.93 | 91.64 % of control | 3.06 | 112.13 % of control | 385.00 | 87.02 % of control | 2.90 | 112.67 % of control | 386.86 | 92.01 % of control | 3.07 | expression of NGF protein [4]: increased expression of NGF protein; also recorded: induces the expression
4 | CNCCc1c[nH]c2cccc(O)c12 [norpsilocin, 4-hydroxy-N-methyl-tryptamine] | induce neurite outgrowth | 107.70 % of control | 344.09 | 83.77 % of control | 2.80 | 101.13 % of control | 347.25 | 87.18 % of control | 2.91 | 73.80 % of control | 253.40 | 79.36 % of control | 2.65 | 7.65 % of control | 26.28 | 27.71 % of control | 0.92 | expression of the anti-inflammatory cytokine IL-10 (IL-10): induces the expression; neurite outgrowth compared with vehicle control and other treatments, in words ([3]; at the concentrations tested): did not perform better than vehicle control
5 | B1 | – | – | – | – | – | – | – | – | – | – | – | – | – | – | – | – | – | Neurites per neuron, Number, Avg. ([3]; 50 ng/ml, positive control, one value per culture plate): 3.82
